Values quoted from earlier work, collected in patent publication US20140208977A1, “POLYDISPERSE COMPOSITIONS AND METHODS FOR ELIMINATING VOLATILE ORGANIC COMPOUNDS” (priority 2013, published 2014).

Conditions: 77° F.

SMILES | Vapor Pressure [mmHg]
C[Si](C)(C)O[Si](C)(C)C [Hexamethyldisiloxane] | 31
C[Si](C)(C)O[Si](C)(C)O[Si](C)(C)O[Si](C)(C)O[Si](C)(C)C [Dodecamethylpentasiloxane] | 0.7
C[Si]1(C)O[Si](C)(C)O[Si](C)(C)O[Si](C)(C)O1 [Octamethylcyclotetrasiloxane] | 1.3
C[Si]1(C)O[Si](C)(C)O[Si](C)(C)O[Si](C)(C)O[Si](C)(C)O[Si](C)(C)O1 [Dodecamethylcyclohexasiloxane] | 0.02
C[Si](C)(C)O[Si](C)(C)O[Si](C)(C)C [Octamethyltrisiloxane] | 3.9
C[Si]1(C)O[Si](C)(C)O[Si](C)(C)O[Si](C)(C)O[Si](C)(C)O1 [Decamethylcyclopentasiloxane] | 0.4
C[Si](C)(C)O[Si](C)(C)O[Si](C)(C)O[Si](C)(C)C [Decamethyltetrasiloxane] | 0.55

Conditions: 25° C.

SMILES | Water Solubility [µg/mL]
C[Si](C)(C)O[Si](C)(C)O[Si](C)(C)C [Octamethyltrisiloxane] | 0.035
C[Si]1(C)O[Si](C)(C)O[Si](C)(C)O1 [Hexamethylcyclotrisiloxane] | 1.56
